Laboratory results as given in patent US20080039408A1, “Use of Oxypurinol as an Inhibitor of Anti-Neoplastic Agent-Induced Cardiotoxicity” (priority 2004, published 2008).
Structures can show the parent of a compound that is named as a salt.

Assays:
xanthine oxidase = xanthine oxidase (Homo sapiens, UniProt P47989); conditions: cited from earlier work
laboratory animals = conditions: all laboratory animals tested; cited from earlier work
patients = conditions: 4-15 years after completion of chemotherapy; cited from earlier work

xanthine oxidase, sequence (P47989 whole entry, species assumed): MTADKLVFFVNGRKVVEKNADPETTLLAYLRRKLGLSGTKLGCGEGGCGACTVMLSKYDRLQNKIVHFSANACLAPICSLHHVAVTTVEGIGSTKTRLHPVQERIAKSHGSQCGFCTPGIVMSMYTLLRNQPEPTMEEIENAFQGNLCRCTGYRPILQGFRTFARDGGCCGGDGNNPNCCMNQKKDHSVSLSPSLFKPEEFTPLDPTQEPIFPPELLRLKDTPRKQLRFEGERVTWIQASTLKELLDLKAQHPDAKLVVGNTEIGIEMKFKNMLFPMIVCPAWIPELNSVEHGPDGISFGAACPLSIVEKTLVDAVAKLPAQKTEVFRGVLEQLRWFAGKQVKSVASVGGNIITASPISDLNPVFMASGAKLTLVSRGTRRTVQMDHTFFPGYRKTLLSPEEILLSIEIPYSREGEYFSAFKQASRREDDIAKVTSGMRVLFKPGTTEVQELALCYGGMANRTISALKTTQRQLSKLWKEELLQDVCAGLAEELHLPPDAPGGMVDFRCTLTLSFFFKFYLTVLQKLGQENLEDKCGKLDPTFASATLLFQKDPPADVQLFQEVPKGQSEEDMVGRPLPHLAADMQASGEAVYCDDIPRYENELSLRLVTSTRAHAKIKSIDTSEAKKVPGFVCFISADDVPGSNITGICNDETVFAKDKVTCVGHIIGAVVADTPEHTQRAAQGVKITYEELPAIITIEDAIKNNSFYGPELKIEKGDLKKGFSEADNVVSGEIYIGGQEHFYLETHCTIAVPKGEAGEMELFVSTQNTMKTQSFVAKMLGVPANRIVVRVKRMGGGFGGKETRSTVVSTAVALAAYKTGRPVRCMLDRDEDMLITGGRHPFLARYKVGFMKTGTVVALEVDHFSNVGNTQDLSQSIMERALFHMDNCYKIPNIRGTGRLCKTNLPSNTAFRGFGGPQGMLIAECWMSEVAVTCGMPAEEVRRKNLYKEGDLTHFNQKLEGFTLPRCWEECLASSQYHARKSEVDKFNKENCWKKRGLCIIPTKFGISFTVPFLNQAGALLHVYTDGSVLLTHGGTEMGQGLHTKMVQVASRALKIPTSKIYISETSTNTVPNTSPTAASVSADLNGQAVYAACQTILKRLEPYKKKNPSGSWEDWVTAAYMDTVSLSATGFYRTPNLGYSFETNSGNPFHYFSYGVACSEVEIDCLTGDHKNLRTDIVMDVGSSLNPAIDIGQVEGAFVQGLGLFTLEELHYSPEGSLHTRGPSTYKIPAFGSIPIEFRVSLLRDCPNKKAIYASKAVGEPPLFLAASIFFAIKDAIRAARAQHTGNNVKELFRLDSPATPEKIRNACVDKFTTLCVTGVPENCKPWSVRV
Method for Female CD1 mice: Female CD1 mice, weighing 20-22 g, were obtained from Charles River with implanted jugular catheters. Prior to induction of doxorubicin cardiotoxicity, the animals were randomly divided into 2 groups: • Group 1: Treatment with Oxypurinol (n=15), 26 mg/dl in the drinking water, start 3 days prior to doxorubicin dose and continue to sacrifice. • Group 2: Treatment with Vehicle (Saline) (n=10), start 3 days prior to doxorubicin dose and continue to sacrifice.
For induction of doxorubicin cardiotoxicity, doxorubicin, dissolved in saline, was injected by IV through the jugular catheter twice a week (Monday and Thursday) ten times at dose 4 mg/kg/day. Between doses 4 and 5 there was a two weeks hiatus to allow recovery of bone marrow suppression.
Seventeen mice were included in the vehicle Group 2. Two mice had jugular catheters that were nonoperable and excluded at the outset. Fifteen mice were included in the drug Group 1.
Seven surviving vehicle Group 2 (control) animals were sacrificed and 11 surviving drug Group 1 mice were sacrificed.

Oc1ncnc2[nH]ncc12 [allopurinol, 1,5-dihydro4H-pyrazolol[3,4-d}pyrimidin-4-one monosodium salt, reference compound]
immediate inhibition of superoxide radical production (xanthine oxidase): very little immediate inhibition

C[C@@H](CN1CC(=O)NC(=O)C1)N1CC(=O)NC(=O)C1 [dexrazoxane]
chronic cardiotoxicity in laboratory animals (laboratory animals): prevents chronic cardiotoxicity

COc1cccc2c1C(=O)c1c(O)c3c(c(O)c1C2=O)C[C@@](O)(C(=O)CO)C[C@@H]3O[C@H]1C[C@H](N)[C@H](O)[C@H](C)O1 [doxorubicin, 14-hydroxydaunomycin]
late onset chronic cardiac events, share of patients (patients): 18-65%

O=c1[nH]c(=O)c2c[nH]nc2[nH]1 [oxypurinol]
immediate inhibition of superoxide radical production (xanthine oxidase): produces immediate inhibition | cellular necrosis score, difference vs vehicle (Female CD1 mice; histology of surviving mice sacrificed prior to dose 4 of doxorubicin): not statistically significant | mean cellular swelling score (Female CD1 mice; histology of surviving mice sacrificed prior to dose 4 of doxorubicin, 11 mice, p=0.004 vs vehicle): 1.8±0.4 | deaths following 3 doses of doxorubicin (Female CD1 mice; oxypurinol 26 mg/dl in drinking water from 3 days before doxorubicin, doxorubicin 4 mg/kg/day IV twice a week, 15 mice in group): 3 deaths | mortality vs vehicle group (Female CD1 mice; oxypurinol Group 1 vs vehicle Group 2, doxorubicin-treated mice): highly significant decrease in mortality
